The nature of series [1]: Determination of particle size distribution (Sympatec Helos, wet dispersion unit). It counts as physicochemical. The settings on record: 5 min ultrasound; for X10%: diameter below which 10% of the particles lie; for X50%: diameter below which 50% of the particles lie; for X90%: diameter below which 90% of the particles lie. Here is the method: Determination of particle size distribution. Determination of particle size distribution is performed using a Sympatec Helos instrument fitted with a wet dispersion unit. To produce the dispersion medium 10-25 mg of the active compound product of the compound of formula (I) (micronized or non-micronized) are predispersed with 10 ml of water/1 drop of Tween 20 in a small vessel. The dispersion is stirred but not shaken to avoid foam formation. The dispersed material is subsequently added to the deionized water (approx. 0.51) in the wet dispersion unit, treated with ultrasound for 5 minutes and measured (10 seconds). The sound exposure time is 5 minutes, a 50 mm aperture is employed (R2, or if measurement range exceeded, R3), the optical density of the suspension is 10-25%, the stirring/pumping speed is set to 50% (40-60%) and evaluation is carried out after 5 minutes of ultrasound.
The three columns X10%, X50% and X90% indicate the diameter below which 10%, 50% and 90% respectively of the particles of the analysed active compound product lie.

Series [2] in a line: ATR IR of the modification after micronization. It counts as physicochemical. The source says: 16.1 kg of methyl {4,6-diamino-2-[5-fluoro-1-(2-fluorobenzyl)-1H-pyrazolo[3,4-b]pyridin-3-yl]pyrimidin-5-yl}carbamate of formula (I) in the crystalline form of modification I, produced according to example 13, method E of WO 2013/076168, were micronized to afford 15.2 kg. The yield was 94.4%. […] The ATR IR diagram corresponds to the IR spectrum of the compound of formula (I) in modification I according to FIG. 1 of WO 2013/076168.
39.0 kg of methyl {4,6-diamino-2-[5-fluoro-1-(2-fluorobenzyl)-1H-pyrazolo[3,4-b]pyridin-3-yl]pyrimidin-5-yl}carbamate of formula (I) in the crystalline form of modification I, produced by the process according to the invention of example 4, were micronized to afford 36.9 kg. The yield was 94.6%.
The ATR IR diagram corresponds to the IR spectrum of the compound of formula (I) in modification I according to FIG. 1 of WO 2013/076168.

The values that follow come from US12172996B2, “Methyl {4,6-diamino-2-[5-fluoro-1-(2-fluorobenzyl)-1H-pyrazolo[3,4-b]pyridin-3-yl]pyrimidin-5-yl}carbamate active compound product having improved properties, production and formulation thereof” (Adverio Pharma GmbH, priority 2018, dated 2024).

SMILES strings stand for the structures.

Consider `COC(=O)Nc1c(N)nc(-c2nn(Cc3ccccc3F)c3ncc(F)cc23)nc1N` [Batch 2-1], for which, in series [1] (listed as 2-1), the X10% stood at 1.0 μm, the X50% turned out to be 11.1 μm and the X90% amounted to 43.0 μm.

In series [1] (listed as 2-2), `COC(=O)Nc1c(N)nc(-c2nn(Cc3ccccc3F)c3ncc(F)cc23)nc1N` [Batch 2-2] returned an X10% of 0.9 μm, an X50% of 4.2 μm and an X90% of 31.9 μm.

Turning to `COC(=O)Nc1c(N)nc(-c2nn(Cc3ccccc3F)c3ncc(F)cc23)nc1N` [Batch 2-3], in series [1] (listed as 2-3), the X10% was determined as 1.0 μm, the X50% is recorded as 4.3 μm and the X90% is on record as 27.4 μm.

In series [1] (listed as 2-4), `COC(=O)Nc1c(N)nc(-c2nn(Cc3ccccc3F)c3ncc(F)cc23)nc1N` [Batch 2-4] returned an X10% of 0.5 μm, an X50% of 1.8 μm and an X90% of 9.5 μm.

Turning to `COC(=O)Nc1c(N)nc(-c2nn(Cc3ccccc3F)c3ncc(F)cc23)nc1N` [Batch 2-5], in series [1] (listed as 2-5), the X10% worked out at 1.4 μm, the X50% is 18.7 μm and the X90% was determined as 50.6 μm.

`COC(=O)Nc1c(N)nc(-c2nn(Cc3ccccc3F)c3ncc(F)cc23)nc1N` [Batch 2-6]: in series [1] (listed as 2-6), the X10% is given as 1.0 μm, the X50% was 9.0 μm and the X90% was determined as 34.4 μm.

In series [1] (listed as 2-7), `COC(=O)Nc1c(N)nc(-c2nn(Cc3ccccc3F)c3ncc(F)cc23)nc1N` [Batch 2-7] registered an X10% of 0.6 μm, an X50% of 4.1 μm and an X90% of 23.6 μm.

In series [1] (listed as 2-8), `COC(=O)Nc1c(N)nc(-c2nn(Cc3ccccc3F)c3ncc(F)cc23)nc1N` [Batch 2-8] showed an X10% of 0.6 μm, an X50% of 2.6 μm and an X90% of 13.6 μm.

For the molecule `COC(=O)Nc1c(N)nc(-c2nn(Cc3ccccc3F)c3ncc(F)cc23)nc1N` [compound of formula (I), Methyl {4,6-diamino-2-[5-fluoro-1-(2-fluorobenzyl)-1H-pyrazolo[3,4-b]pyridin-3-yl]pyrimidin-5-yl}carbamate], the Modification after micronization entry is reported as “remained in modification I even after micronization” in series [2] (produced according to example 13, method E of WO 2013/076168, 16.1 kg micronized) and “remained in modification I even after micronization” in series [2] (produced by the process according to the invention of example 4, 39.0 kg micronized).
